# Experimental data as given in PMC10945559, “Forgotten Natural Products: Semisynthetic Development of Blasticidin S As an Antibiotic Lead” (ACS Medicinal Chemistry Letters, 2024).
# Read-outs that look alike come from different tables or passages of the source. Marks after values point to notes of the source that are not given here.
# How the values were obtained:
# [1] = tested on: S. aureus 8810; assay: Broth microdilution antibacterial assay; assay type: cell-based, Staphylococcus aureus; details: for Selectivity index (CC50/IC50): MRC-5 CC50 / S. aureus IC50; for IC50 / MIC: Staphylococcus aureus, 8810; for IC50: average of two biological replicates ± S.D., read-out: IC50
# Method: (§1) Antibacterial Assay Procedure
# (§2) Broth Microdilution Assays
# (§3) Media and solutions were autoclaved or sterile filtered prior to use and manipulations were carried out in a laminar flow hood. Antibacterial testing was performed in polypropylene 96 -well flat bottom plates. The minimal inhibitory concentration of blasticidin S ( 1) hydrochloride, P10 (2), and derivatives 15–22 were assessed against Staphylococcus aureus ΔNorA, S. aureus 8810, methicillin-resistant S. aureus (MRSA) ATCC 43300, Enterococcus faecalis ATCC 29212, vancomycin-resistant Enterococcus, Klebsiella pneumoniae ATCC 29665, Pseudomonas aeruginosa, and Acinetobacter baumannii ATCC 17978 using serial dilutions. Doxycycline (Gold Bio) as a positive control and the vehicle as a negative control. Stock solutions of each compound were prepared at 5.12 mg/mL in 50% DMSO/water and serially diluted in 50% DMSO/water to create master plates. From the master plates, 10 μL of each dilution was applied to test plates using a Bravo automated liquid transfer system (Agilent). Bacteria previously grown overnight (37 °C, 120 – 200 RPM), in LB broth were diluted to an OD600 of 0.0 5 in cation-adjusted Mueller-Hinton broth, grown to an OD600 of ~0.5, and diluted to an OD600 of 0.004 in cation-adjusted Mueller-Hinton broth. These diluted cultures were applied to the test plates (190 μL per test well) resulting in final concentrations of the test compounds of 256–2 μg/mL. Growth controls (wells with inoculated media but no vehicle or test compounds) were included to assess any potential toxicity from the vehicle. The plates were incubated at 37 °C for 16–18 h, except for VRE and E. faecalis, which were incubated at 37 °C for 24 h. Inhibition was determined by measuring the optical density at 600 nm (OD600) with a Cytation 3 plate reader (BioTek). The optical density measurements were normalized to the positive and negative controls and the vehicle and growth controls were compared and found to be indistinguishable, indicating no toxicity from the vehicle used. The MIC was the lowest concentration that inhibited >90% of growth. Two biological replicates were performed in duplicate. MIC values are reported […]
# (§4) as a range from biological replicates. Inhibition curves were generated using Prism (GraphPad).
# (§5) The IC50 values reported in Table 2 are the average of the two biological replicates ± standard […]
# (§6) Cytotoxicity Assay Procedure
# (§7) Human lung fibroblast cells, MRC -5 (CCL-171), were cultured at 37℃ with 5% CO2 and were plated at 5000 cells/well in a 96 -well plate. Compounds 1, 2, and 15-22 were initially prepared at concentrations of 5.12 mg/mL in a vehicle of 50% DMSO. Dilutions of the compounds (4 – 512 μg/mL) were then prepared in growth medium containing Dulbecco’s modified Eagle’s medium (DMEM) with high glucose, L -glutamine, and sodium pyruvate supplemented with 10% fetal bovine serum (FBS), 1% non -essential amino acids, and 0.1% gentamicin sulfate, and 25mM HEPES. The vehicle (50% DMSO) was also prepared via the sa me dilution series to serve as a control. Growth media was removed from the cells and replaced with the same volume of each compound dilution. Cells were incubated for 24 h , after which CellTiter 96® AQueous One Solution Reagent was added to each well as recommended by the manufacturer’s protocol (Promega CellTiter 96 AQueous One Solution Cell Proliferation Assay) and further incubated for 4 h. After incubation, absorbance was measured at 490 nm on an Infinite M plex multimode microplate reader with i -control Tecan software. Viability was calculated by subtracting media only absorbance values and normalizing to the vehicle control at each concentration. The presented data is one assay performed in triplicate that is representative of multiple trials. Data for the 256 and 512 μg/mL concentrations were removed from analysis due to vehicle toxicity […]
# (§8) CC50 concentrations were determined via the ED50 Plus v1.0 software (https://archive.org/details/ed50v10_zip).
# [2] = tested on: methicillin-resistant S. aureus (MRSA) ATCC 43300; assay: Broth microdilution antibacterial assay; assay type: cell-based, Staphylococcus aureus; details: for Selectivity index (CC50/IC50): MRC-5 CC50 / MRSA IC50; for IC50 / MIC: Staphylococcus aureus; for IC50: average of two biological replicates ± S.D., read-out: IC50
# Method: as §1, §2, §3, §4, §5, §6, §7, §8
# [3] = tested on: vancomycin-resistant Enterococcus (VRE); assay: Broth microdilution antibacterial assay; assay type: cell-based; details: for MIC / IC50: Enterococcus; for IC50: average of two biological replicates ± S.D., read-out: IC50; for Selectivity index (CC50/IC50): MRC-5 CC50 / VRE IC50
# Method: as §1, §2, §3, §4, §5, §6, §7, §8
# [4] = tested on: Staphylococcus aureus ΔNorA; assay: Broth microdilution antibacterial assay; assay type: cell-based; details: for Selectivity index (CC50/IC50): MRC-5 CC50 / S. aureus ΔNorA IC50; for IC50 / MIC: Staphylococcus aureus
# Method: as §1, §2, §3, §4, §5, §6, §7, §8
# [5] = tested on: Enterococcus faecalis ATCC 29212; assay: Broth microdilution antibacterial assay; assay type: cell-based; details: for MIC / IC50: Enterococcus faecalis, ATCC29212; for IC50: average of two biological replicates ± S.D. (18: one biological replicate), read-out: IC50; for Selectivity index (CC50/IC50): MRC-5 CC50 / E. faecalis IC50
# Method: as §1, §2, §3, §4, §5, §6, §7, §8
# [6] = tested on: Klebsiella pneumoniae ATCC 29665; assay: Broth microdilution antibacterial assay; assay type: cell-based; details: for IC50 / MIC: Klebsiella pneumoniae, ATCC29665, K. pneumoniae; for IC50: average of two biological replicates ± S.D., read-out: IC50; for MIC: lowest concentration inhibiting >90% of growth, range from biological replicates, read-out: MIC; for Selectivity index (CC50/IC50): MRC-5 CC50 / K. pneumoniae IC50
# Method: as §1, §2, §3, §4, §5, §6, §7, §8
# [7] = tested on: Pseudomonas aeruginosa; assay: Broth microdilution antibacterial assay; assay type: cell-based; details: for Selectivity index (CC50/IC50): MRC-5 CC50 / P. aeruginosa IC50; for IC50 / MIC: Pseudomonas aeruginosa; for IC50: average of two biological replicates ± S.D., read-out: IC50
# Method: as §1, §2, §3, §4, §5, §6, §7, §8
# [8] = tested on: Acinetobacter baumannii ATCC 17978; assay: Broth microdilution antibacterial assay; assay type: cell-based; details: for IC50 / MIC: Acinetobacter baumannii, ATCC17978, A. baumannii; for IC50: average of two biological replicates ± S.D., read-out: IC50; for MIC: lowest concentration inhibiting >90% of growth, range from biological replicates, read-out: MIC; for Selectivity index (CC50/IC50): MRC-5 CC50 / A. baumannii IC50
# Method: as §1, §2, §3, §4, §5, §6, §7, §8
# [9] = in vitro; assay type: cell-based, human; details: human; MRC-5 (lung fibroblast); 24 h; one biological replicate (n = 3); read-out: CC50 for human cells
# Method: as §4, §5, §6, §7, §8
# (§9) Figure S41. The effect of compounds on cell viability. The lines represent non -linear regression curves, and error bars represent means ± […]
# (§10) SD (n=3). […]
# [10] = tested on: MRC-5 lung fibroblast cells; assay: in vitro; assay type: cell-based, human; details: average of SI (CC50/IC50) over the bacteria tested
# Method: as §4, §5, §6, §7, §8, §9, §10
# [11] = S. aureus, lowest concentration inhibiting >90% of growth, range from biological replicates, read-out: MIC
# [12] = average MIC, Table S3, read-out: Average Activity against S. aureus
# [13] = MRSA, lowest concentration inhibiting >90% of growth, range from biological replicates, read-out: MIC
# [14] = average MIC, Table S3, read-out: Average Activity against MRSA
# [15] = VRE, average MIC, Table S3, read-out: Average Activity against VRE
# [16] = VRE, 24 h, lowest concentration inhibiting >90% of growth, range from biological replicates, read-out: MIC
# [17] = E. faecalis, 24 h, lowest concentration inhibiting >90% of growth, range from biological replicates, read-out: MIC
# [18] = average MIC, Table S3, read-out: Average Activity against E. faecalis
# [19] = P. aeruginosa, lowest concentration inhibiting >90% of growth, range from biological replicates, read-out: MIC
Structure (SMILES),Selectivity index (CC50/IC50) [1],IC50 ([1]; S. aureus) [µg/mL],"MIC [1, 11] [µg/mL]","MIC [1, 12] [µg/mL]",Selectivity index (CC50/IC50) [2],IC50 ([2]; MRSA) [µg/mL],"MIC [2, 13] [µg/mL]","MIC [2, 14] [µg/mL]","MIC [3, 15] [µg/mL]",IC50 ([3]; VRE) [µg/mL],Selectivity index (CC50/IC50) [3],Selectivity index (CC50/IC50) [4],IC50 [4] [µg/mL],MIC [4] [µg/mL],"MIC [5, 17] [µg/mL]",IC50 ([5]; E. faecalis) [µg/mL],"MIC [5, 18] [µg/mL]",Selectivity index (CC50/IC50) [5],IC50 [6] [µg/mL],MIC [6] [µg/mL],other results
"CN(CC[C@H](N)CC(=O)N[C@H]1C=C[C@H](n2ccc(N)nc2=O)O[C@@H]1C(N)=O)C(=N)N [Compound 2, P10]",1.3,4.7 ± 1,32,32,0.8,7 ± 1,32,32,64,15 ± 8.6,0.4,0.4,14 ± 0.3,64 to 128,16 to 32,5.1 ± 4.3,16,1.2,7.6 ± 1.3,32,"MIC [3, 16]: 64 µg/mL; Selectivity index (CC50/IC50) [6]: 0.8; Selectivity index (CC50/IC50) [7]: 0.4; IC50 ([7]; P. aeruginosa): 14.6 ± 1.5 µg/mL; MIC [7, 19]: 64 µg/mL; IC50 [8]: 4.5 ± 0.4 µg/mL; MIC [8]: 16 µg/mL; Selectivity index (CC50/IC50) [8]: 1.3; CC50 at 24 h [9]: 5.9 µg/mL; average selectivity index [10]: 0.8"
CN(CC[C@H](N)CC(=O)N[C@H]1C=C[C@H](n2ccc(N)nc2=O)O[C@@H]1C(=O)NCCc1ccccc1)C(=N)N [Compound 22],15,3.8 ± 0.2,16,12,15,4 ± 0.3,8 to 16,12,32,11.1 ± 0.8,5.2,3.0,19.3 ± 0.2,128,8,6.1 ± 2.6,8,9.6,36.9 ± 4.7,256,"better activity than the phenethyl ester of the previous study ([1]; S. aureus, ester data ref 8): 4- to 8 fold; increase in potency compared to 1 ([2]; MRSA, MIC): 16 to 32 fold; better activity than the phenethyl ester of the previous study ([2]; MRSA, ester data ref 8): 4- to 8 fold; MIC [3, 16]: 32 µg/mL; increase in potency compared to 1 ([3]; VRE, MIC): 8 fold; Selectivity index (CC50/IC50) [6]: 1.6; Selectivity index (CC50/IC50) [7]: 3.5; IC50 ([7]; P. aeruginosa): 16.5 ± 2.1 µg/mL; MIC [7, 19]: 64 µg/mL; IC50 [8]: 183 ± 19 µg/mL; MIC [8]: > 256 µg/mL; Selectivity index (CC50/IC50) [8]: 0.3; CC50 at 24 h [9]: 58.4 µg/mL"
"CNC(=O)[C@H]1O[C@@H](n2ccc(N)nc2=O)C=C[C@@H]1NC(=O)C[C@@H](N)CCN(C)C(=N)N [Compound 15, Methyl amide]",8.9,5.9 ± 1.2,32,32,4.0,13.3 ± 3.3,32 to 64,48,32,13.5 ± 3.6,3.9,2.5,21.1 ± 0.4,128,16 to 32,13.2 ± 3.6,32,4.0,26.4 ± 4.1,64,"MIC [3, 16]: 32 µg/mL; Selectivity index (CC50/IC50) [6]: 2.0; Selectivity index (CC50/IC50) [7]: 2.6; MIC [7]: 64 to 128 µg/mL; IC50 ([7]; P. aeruginosa): 20.2 ± 3.4 µg/mL; IC50 [8]: 18.3 ± 5.3 µg/mL; MIC [8]: 64 µg/mL; Selectivity index (CC50/IC50) [8]: 2.9; CC50 at 24 h [9]: 52.8 µg/mL"
CN(C)C(=O)[C@H]1O[C@@H](n2ccc(N)nc2=O)C=C[C@@H]1NC(=O)C[C@@H](N)CCN(C)C(=N)N [Compound 18],9.1,7 ± 1.5,64,64,5.0,12.8 ± 1.9,32,32,96,27.7 ± 11,2.3,3.5,18.3 ± 1.4,128,16 to 32,17,32,3.7 ^b,60.1 ± 4.7,256,"MIC ([3]; VRE, 24 h): 64 to 128 µg/mL; Selectivity index (CC50/IC50) [6]: 1.1; Selectivity index (CC50/IC50) [7]: 3.4; MIC [7]: 64 to 128 µg/mL; IC50 ([7]; P. aeruginosa): 18.8 ± 2.6 µg/mL; IC50 [8]: 46.4 ± 7 µg/mL; MIC [8]: 256 µg/mL; Selectivity index (CC50/IC50) [8]: 1.4; CC50 at 24 h [9]: 63.9 µg/mL"
